Test results taken from patent publication US6387955B1, “Enhanced anti-angiogenic activity of permanently charged derivatives of steroid hormones” (Pharmos Corporation, priority 1997, dated 2002).

Key:
[1] = tested on: MCF-7 tumors; experiment: Growth of MCF-7 tumors implanted in ventral fat pad of nude mice, tumor size by MRI; type: in vivo; conditions: for change in tumor size relative to day 0 (in words): slow-release pellet s.c. in flank, 25 day time course, MRI
Experimental: (§1) Female CD1-nu/nu athymic mice (6 weeks old) were obtained from the Weizmann Institute Department of Animal Services. MCF-7 cells, serially passed as described above, were detached from the culturing flasks with 0.03% EDTA in phosphate buffered saline (PBS) and washed several times in normal saline. Cells (10^7/innoculum) were then injected into the ventral fat pad at the level of the breast. Coincident with cell introduction, a slow-release pellet of estradiol (0.72 mg/pellet, 45-day release profile; Innovative Research, Sarasota, Fla.) was implanted subcutaneously in the flank of the animal. Mice were anesthetized with ketamine/Rompun (i.p.) for the surgical procedures. […] At this point, animals were randomized into four study groups. In the first, the estrogen pellet was removed and replaced with a slow-release TMI-laden pellet (6.3 mg, 45-day release) (n=5). In the second group, the estrogen pellet was removed and replaced with a tamoxifen pellet (n=7). The third group was treated with a blank (placebo) pellet (n=5), while the fourth group was reimplanted with an estradiol pellet (n=4). TMI and placebo-treated animals were imaged (under ketamine/Rompun anesthesia) either immediately before pellet exchange (day 0) or at day 3, 6, 12 and 25 after pellet exchange.
MRI images were recorded with a Bruker 4.7 (tesla)/30 Biospec spectrometer (Bruker Medizintechnik, Rheinstetten, Germany). 1H Spin-echo images were recorded at 200.12 MHz using a custom-made 4.5 cm rf coil with an image data matrix of 256×128 pixels. Pilot scans of the tumors were completed using a fast transverse multi-slice spin-echo sequence (giving T1-weighted spectra; inter-echo time (TE)=16 msec, recovery time (TR)=500 msec) followed by T2-weighted sequences in which axial slices perpendicular to the spine (i.e., a coronal orientation) were recorded. In the latter case, spin-echo images were obtained using a 4 cm field of view, 1 mm slice thickness, 1.2 mm slice-to-slice distance and a four-sequence average. The TE and TR were optimized to provide the best image contrast generating values of 80 and 3200 msec, respectively. This gave a total imaging time of approximately 30 min. […] Tumor size was calculated using a slice-to-slice reconstruction in which the slice surface area was obtained from histograms provided by the resident Bruker software package using the following relationship: […]
where XSA is the cross-sectional area of an internal slice, ES is the cross-sectional area of an edge slice, l is the slice thickness and ssd is the distance from the middle of one slice to the middle of the next. For image analysis, the average pixel intensity of viable portions of MCF-7 tumors was determined from a central tumor slice using histograms generated by the dedicated Bruker software package. […]

[2] = tested on: MCF-7 tumor; experiment: TBB in the MCF-7 model, daily dosing (preliminary data); type: in vivo, mice; conditions: two weeks of daily dosing
Text: Preliminary data on TBB in the MCF-7 model have also been generated. […] Administration of TBB to MCF-7 tumor-bearing mice caused significant tumor regression that amounted to 32% over two weeks of daily dosing. TMI induced a 20% regression over a 25 day time course.

[3] = Tolerability in mice; type: in vivo
[4] = tested on: gelatinase A (MMP-2), 72 kDa; experiment: Collagenolytic activity by zymography in human fibrosarcoma cell supernatant, gelatinase A; type: cell-based
Experimental: (§2) HT-1080 cells (CCL 121), derived from a metastatic lesion of a human fibrosarcoma and primary bovine endothelial cells were obtained from the American Type Culture collection (Rockville, Md.). Cells were maintained under an atmosphere of 5% CO2, in Dulbecco's Minimal Essential Medium (DMEM) supplemented with 10% fetal calf serum, glutamine, vitamins, non-essential amino acids and antibiotics (Biological Industries, Kibbutz Beth HaEmek, Israel).
(§3) Sub-confluent cell cultures were incubated for 6 to 24 hours in serum-free DMEM, either with or without various concentrations of TMI or tamoxifen, and the resultant supernatant was analyzed for collagenolytic activity. The collagenolytic activity was determined using a gelatin-impregnated (1 mg/ml, Difco, Detroit Mich.) SDS-PAGE 8% gel, as previously described, with minor modifications. Briefly, the culture media samples were separated on the substrate-impregnated gels under non-reducing conditions, followed by 30 min of incubation of 2.5% Triton X-100 (BDH, UK). The gels were then incubated for 16 hours at 37° C. in 50 mM TRIS, 0.2 M NaCl, 5 mM CaCl2, 0.02% BRIJ 35 (w/v) at pH 7.6. […] The intensity of the stained bands was then determined using a computerized densitometer (Molecular Dynamics Model 300A). […]

[5] = tested on: gelatinase B (MMP-9), 92 kDa; experiment: Collagenolytic activity by zymography in human fibrosarcoma cell supernatant, gelatinase B; type: cell-based
Experimental: as §2, §3

[6] = tested on: MCF-7 tumors; experiment: Tumor necrosis in MCF-7 tumors by T2-weighted MRI; type: in vivo, nude mice
Experimental: as §1
MRI images were recorded with a Bruker 4.7 (tesla)/30 Biospec spectrometer (Bruker Medizintechnik, Rheinstetten, Germany). 1H Spin-echo images were recorded at 200.12 MHz using a custom-made 4.5 cm rf coil with an image data matrix of 256×128 pixels. Pilot scans of the tumors were completed using a fast transverse multi-slice spin-echo sequence (giving T1-weighted spectra; inter-echo time (TE)=16 msec, recovery time (TR)=500 msec) followed by T2-weighted sequences in which axial slices perpendicular to the spine (i.e., a coronal orientation) were recorded. In the latter case, spin-echo images were obtained using a 4 cm field of view, 1 mm slice thickness, 1.2 mm slice-to-slice distance and a four-sequence average. The TE and TR were optimized to provide the best image contrast generating values of 80 and 3200 msec, respectively. This gave a total imaging time of approximately 30 min. Under the conditions reported, the in-plane resolution was 155×310 μm. Tumor size was calculated using a slice-to-slice reconstruction in which the slice surface area was obtained from histograms provided by the resident Bruker software package using the following relationship:
where XSA is the cross-sectional area of an internal slice, ES is the cross-sectional area of an edge slice, l is the slice thickness and ssd is the distance from the middle of one slice to the middle of the next. For image analysis, the average pixel intensity of viable portions of MCF-7 tumors was determined from a central tumor slice using histograms generated by the dedicated Bruker software package. […] Fibrosis was defined as those areas manifesting a decrease in pixel intensity of […].
In vivo tumor histology was assessed for TMI and placebo-treated tumors using T2-weighted MR images. […] At this time, the area of necrosis was two-fold higher than that observed on day 0 (increasing from an average of 20% to approximately 40%).

[7] = tested on: MCF-7 human breast cancer; conditions: MCF-7 human breast cancer implanted in nude mice; cited from earlier work
[8] = direct comparison, human fibrosarcoma cells
[9] = doses 0.5 to 20 μM, 6 and 24 hours, result at or up to 20 μM

## C[C@]12CC[C@@H]3c4ccc(O)cc4CC[C@H]3[C@@H]1CC[C@@H]2O [estrogen, estradiol]
[1]
  change in tumor size relative to day 0 (in words): more than doubled in size

## Tamoxifen benzyl bromide [TBB]
[2]
  tumor regression: 32%
[3]; doses as high as 10 mg/Kg given daily over a two week time course
  adverse effects: no adverse effects
[3]; mice
  tolerability: well tolerated
[4]; [8]
  potency relative to TMI as inhibitor of 72 kDa (gelatinase A, MMP-2) collagenase: more potent than TMI
[5]; [8]
  potency relative to TMI as inhibitor of 92 kDa (gelatinase B, MMP-9) collagenase: more potent than TMI

## CC/C(=C(\c1ccccc1)c1ccc(OCCN(C)C)cc1)c1ccccc1 [tamoxifen, reference compound]
[1]; MCF-7 tumors in nude mice
  tolerance of tumors to the drug and regrowth over time: became tolerant to the effects of the drug and began to regrow over time
[1]
  change in tumor size relative to day 0 (in words): tumoristatic
[6]; preliminary comparison of TMI and tamoxifen
  maximum extent of necrosis: 50%
[6]; sampling day after pellet exchange
  onset of tumor necrosis: ≤ 3 days
[4]; [9]
  inhibition of gelatinase A (MMP-2) collagenolytic activity: no significant inhibitory activity
[5]; [9]
  inhibition of gelatinase B (MMP-9) collagenolytic activity: no significant inhibitory activity
[7]
  effect on tumor growth: merely slowed tumor growth
